Test results as given in paper PMC8351594, “Design of Novel Amphipathic α-Helical Antimicrobial Peptides with No Toxicity as Therapeutics against the Antibiotic-Resistant Gram-Negative Bacterial Pathogen, Acinetobacter Baumannii” (Journal of medicinal chemistry and drug design, 2019).
Converted amounts (≈) assume the structure as drawn. Square brackets hold non-standard residues; d marks the D form. Peptide text beside a SMILES is read from it. Dab = NCC[C@H](N)C(=O)O; Dap = NC[C@H](N)C(=O)O

Experiments:
[1] = test system: Acinetobacter baumannii MB9941; details: Mueller-Hinton medium, 37°C, 24 h, inoculum 5 × 10^5 CFU/mL; MIC based on three sets of determinations
Description: (§1) The A. baumannii strains used in this study consisted of seven strains resistant to Polymyxin B and Colistin (antibiotics of last resort) obtained from MERCK (M89941, M89949, M89951, M89952, M89953, M89955 and M89963). The MICGM in this case is the geometric mean MIC from the seven Acinetobacter baumannii strains used in this study.
(§2) The minimal inhibitory concentration (MIC) is defined as the lowest peptide concentration that inhibited bacterial growth. MICs were measured by a standard microtiter dilution method in Mueller Hinton (MH) medium. Briefly, cells were grown overnight at 37°C in MH broth and were diluted in the same medium. […] The plates were incubated at 37°C for 24h, and the MICs were determined. The MICGM is the geometric mean of the number of MIC values.

[2] = test system: Acinetobacter baumannii MB9949; details: Mueller-Hinton medium, 37°C, 24 h, inoculum 5 × 10^5 CFU/mL; MIC based on three sets of determinations
Description: as §1, §2

[3] = test system: Acinetobacter baumannii MB9951; details: Mueller-Hinton medium, 37°C, 24 h, inoculum 5 × 10^5 CFU/mL; MIC based on three sets of determinations
Description: as §1, §2

[4] = test system: Acinetobacter baumannii MB9952; details: Mueller-Hinton medium, 37°C, 24 h, inoculum 5 × 10^5 CFU/mL; MIC based on three sets of determinations
Description: as §1, §2

[5] = test system: Acinetobacter baumannii MB9953; details: Mueller-Hinton medium, 37°C, 24 h, inoculum 5 × 10^5 CFU/mL; MIC based on three sets of determinations
Description: as §1, §2

[6] = test system: Acinetobacter baumannii MB9955; details: Mueller-Hinton medium, 37°C, 24 h, inoculum 5 × 10^5 CFU/mL; MIC based on three sets of determinations
Description: as §1, §2

[7] = test system: Acinetobacter baumannii MB9963; details: Mueller-Hinton medium, 37°C, 24 h, inoculum 5 × 10^5 CFU/mL; MIC based on three sets of determinations
Description: as §1, §2

human red blood cells [8] = assay: Hemolytic activity (HC50) determination; details: 1% human erythrocytes in PBS pH 7.4, 37°C, 18 h, 12 concentrations up to 1000 μg/mL, hemoglobin release at 570 nm, average of 3 replicates; estimated by extrapolation when 50% hemolysis not observed at 1000 μg/mL
Description: (§3) Peptide samples (concentrations determined by amino acid analysis) were added to 1% human erythrocytes in phosphate-buffered saline (100 mM NaCl, 80 mM Na2HPO4, 20 mM NaH2PO4, pH 7.4) and the reaction mixtures were incubated at 37°C for 18h in microtiter plates. Two-fold serial dilutions of the peptide samples were carried out. This determination was made by withdrawing aliquots from the hemolysis assays and removing unlysed erythrocytes by centrifugation (800 × g). Hemoglobin release was determined spectrophotometrically at 570 nm. The control for 100% hemolysis was a sample of erythrocytes treated with water. The control for no release of hemoglobin was a sample of 1% erythrocytes without any peptide added. […] The hemolytic activity HC50 is the peptide concentration that causes 50% hemolysis of erythrocytes after 18h. HC50 was determined from a plot of percent lysis versus peptide concentration (μM) using 12 different concentrations up to 1000 micrograms per ml for 18h at 37°C. The average of 3 replicates is used with an average variance of less than 4%. Fresh human blood was obtained from Vitalant, Denver, CO, USA.
(§4) In order to determine that we were able to eliminate hemolysis of human red blood cells, we used the most rigorous test of hemolytic activity (18h at 37°C and up to 1000 μg/mL or >350 μM of AMP). […] The HC50 value is estimated when 50% hemolysis is not observed at 1000 μg/mL by extrapolation of the plots observed in figure 3.

human red blood cells [9] = test system: human red blood cells
Description: as §3, §4

| SMILES | MIC MB9941 [1] | MIC MB9949 [2] | MIC MB9951 [3] | MIC MB9952 [4] | MIC MB9953 [5] | MIC MB9955 [6] | MIC MB9963 [7] | HC50 (concentration of peptide that results in 50% hemolysis) (human red blood cells [8]) | lysis of human red blood cells at 1000 μg/mL (human red blood cells [9]) |
| --- | --- | --- | --- | --- | --- | --- | --- | --- | --- |
| CC(=O)N[C@H](CCCCN)C(=O)N[C@H](CC(C)C)C(=O)N[C@@H](CCN)C(=O)N[C@H](CO)C(=O)N[C@H](CC(C)C)C(=O)N[C@H](CC(C)C)C(=O)N[C@@H](CCN)C(=O)N[C@@H](C(=O)N[C@H](CC(C)C)C(=O)N[C@H](CO)C(=O)N[C@@H](CCN)C(=O)N[C@H](C)C(=O)N[C@H](CCCCN)C(=O)N[C@H](C)C(=O)N[C@H](C)C(=O)N[C@H](CCCCN)C(=O)N[C@H](CC(C)C)C(=O)N[C@@H](CCN)C(=O)N[C@@H](C(=O)N[C@H](CC(C)C)C(=O)N[C@H](CC(C)C)C(=O)N[C@@H](CCN)C(=O)N[C@H](C)C(=O)N[C@H](CC(C)C)C(=O)N[C@H](CO)C(=O)N[C@H](CO)C(N)=O)[C@H](C)O)[C@H](C)O [D102(Lys^1Ser^26-5 Dab-1)] (Ac-[dK][dL][Dab][dS][dL][dL][Dab][dT][dL][dS][Dab][dA][dK][dA][dA][dK][dL][Dab][dT][dL][dL][Dab][dA][dL][dS][dS]-NH2) | 0.4 µM (≈ 1.07 µg/mL) | 0.7 µM (≈ 1.88 µg/mL) | 0.7 µM (≈ 1.88 µg/mL) | 0.7 µM (≈ 1.88 µg/mL) | 1.4 µM (≈ 3.76 µg/mL) | 0.7 µM (≈ 1.88 µg/mL) | 0.7 µM (≈ 1.88 µg/mL) | >708 µM |  |
| CC(=O)N[C@H](CCCCN)C(=O)N[C@H](CC(C)C)C(=O)N[C@H](CCCCN)C(=O)N[C@H](CO)C(=O)N[C@H](CC(C)C)C(=O)N[C@H](CC(C)C)C(=O)N[C@H](CCCCN)C(=O)N[C@@H](C(=O)N[C@H](CC(C)C)C(=O)N[C@H](CO)C(=O)N[C@H](C)C(=O)N[C@H](C)C(=O)N[C@H](CCCCN)C(=O)N[C@H](CCCCN)C(=O)N[C@H](CCCCN)C(=O)N[C@H](CCCCN)C(=O)N[C@H](CC(C)C)C(=O)N[C@H](C)C(=O)N[C@@H](C(=O)N[C@H](CC(C)C)C(=O)N[C@H](CC(C)C)C(=O)N[C@H](CCCCN)C(=O)N[C@H](C)C(=O)N[C@H](CC(C)C)C(=O)N[C@H](CO)C(=O)N[C@H](CO)C(N)=O)[C@H](C)O)[C@H](C)O [D103(Lys^1Ser^26-5 Lys-2)] (Ac-[dK][dL][dK][dS][dL][dL][dK][dT][dL][dS][dA][dA][dK][dK][dK][dK][dL][dA][dT][dL][dL][dK][dA][dL][dS][dS]-NH2) | 0.7 µM (≈ 1.98 µg/mL) | 0.7 µM (≈ 1.98 µg/mL) | 0.7 µM (≈ 1.98 µg/mL) | 0.7 µM (≈ 1.98 µg/mL) | 0.7 µM (≈ 1.98 µg/mL) | 0.7 µM (≈ 1.98 µg/mL) | 0.7 µM (≈ 1.98 µg/mL) | 134.9 µM |  |
| CC(=O)N[C@H](CCCCN)C(=O)N[C@H](CC(C)C)C(=O)N[C@@H](CN)C(=O)N[C@H](CO)C(=O)N[C@H](CC(C)C)C(=O)N[C@H](CC(C)C)C(=O)N[C@@H](CN)C(=O)N[C@@H](C(=O)N[C@H](CC(C)C)C(=O)N[C@H](CO)C(=O)N[C@@H](CN)C(=O)N[C@H](C)C(=O)N[C@H](CCCCN)C(=O)N[C@H](C)C(=O)N[C@H](C)C(=O)N[C@H](CCCCN)C(=O)N[C@H](CC(C)C)C(=O)N[C@@H](CN)C(=O)N[C@@H](C(=O)N[C@H](CC(C)C)C(=O)N[C@H](CC(C)C)C(=O)N[C@@H](CN)C(=O)N[C@H](C)C(=O)N[C@H](CC(C)C)C(=O)N[C@H](CO)C(=O)N[C@@H](CN)C(N)=O)[C@H](C)O)[C@H](C)O [D105(Lys^1-6 Dap-1)] (Ac-[dK][dL][Dap][dS][dL][dL][Dap][dT][dL][dS][Dap][dA][dK][dA][dA][dK][dL][Dap][dT][dL][dL][Dap][dA][dL][dS][Dap]-NH2) |  |  |  |  |  | 0.5 µM (≈ 1.31 µg/mL) |  |  | essentially no lysis |
